Data: patent US20240132485A1, “HETEROCYCLIC CULLIN RING UBIQUITIN LIGASE COMPOUNDS AND USES THEREOF” (CEMM - FORSCHUNGSZENTRUM FÜR MOLEKULARE MEDIZIN GMBH, priority 2020, published 2024)

What was measured:
[1] = molecular target: T1, DDB1-CDK12/Cyclin K ternary complex (Homo sapiens, UniProt Q16531+Q9NYV4); experiment: NanoBRET fold-change assay (HaloTag_CDK12 / NanoLuc_DDB1 in HEK293T); type: cell-based; details: 10 μM compound, 10 minutes
T1 construct: expressed in transfected cells; host or cells: HEK293T wildtype cells, transient PEI transfection
T1 sequence (Q9NYV4 whole entry): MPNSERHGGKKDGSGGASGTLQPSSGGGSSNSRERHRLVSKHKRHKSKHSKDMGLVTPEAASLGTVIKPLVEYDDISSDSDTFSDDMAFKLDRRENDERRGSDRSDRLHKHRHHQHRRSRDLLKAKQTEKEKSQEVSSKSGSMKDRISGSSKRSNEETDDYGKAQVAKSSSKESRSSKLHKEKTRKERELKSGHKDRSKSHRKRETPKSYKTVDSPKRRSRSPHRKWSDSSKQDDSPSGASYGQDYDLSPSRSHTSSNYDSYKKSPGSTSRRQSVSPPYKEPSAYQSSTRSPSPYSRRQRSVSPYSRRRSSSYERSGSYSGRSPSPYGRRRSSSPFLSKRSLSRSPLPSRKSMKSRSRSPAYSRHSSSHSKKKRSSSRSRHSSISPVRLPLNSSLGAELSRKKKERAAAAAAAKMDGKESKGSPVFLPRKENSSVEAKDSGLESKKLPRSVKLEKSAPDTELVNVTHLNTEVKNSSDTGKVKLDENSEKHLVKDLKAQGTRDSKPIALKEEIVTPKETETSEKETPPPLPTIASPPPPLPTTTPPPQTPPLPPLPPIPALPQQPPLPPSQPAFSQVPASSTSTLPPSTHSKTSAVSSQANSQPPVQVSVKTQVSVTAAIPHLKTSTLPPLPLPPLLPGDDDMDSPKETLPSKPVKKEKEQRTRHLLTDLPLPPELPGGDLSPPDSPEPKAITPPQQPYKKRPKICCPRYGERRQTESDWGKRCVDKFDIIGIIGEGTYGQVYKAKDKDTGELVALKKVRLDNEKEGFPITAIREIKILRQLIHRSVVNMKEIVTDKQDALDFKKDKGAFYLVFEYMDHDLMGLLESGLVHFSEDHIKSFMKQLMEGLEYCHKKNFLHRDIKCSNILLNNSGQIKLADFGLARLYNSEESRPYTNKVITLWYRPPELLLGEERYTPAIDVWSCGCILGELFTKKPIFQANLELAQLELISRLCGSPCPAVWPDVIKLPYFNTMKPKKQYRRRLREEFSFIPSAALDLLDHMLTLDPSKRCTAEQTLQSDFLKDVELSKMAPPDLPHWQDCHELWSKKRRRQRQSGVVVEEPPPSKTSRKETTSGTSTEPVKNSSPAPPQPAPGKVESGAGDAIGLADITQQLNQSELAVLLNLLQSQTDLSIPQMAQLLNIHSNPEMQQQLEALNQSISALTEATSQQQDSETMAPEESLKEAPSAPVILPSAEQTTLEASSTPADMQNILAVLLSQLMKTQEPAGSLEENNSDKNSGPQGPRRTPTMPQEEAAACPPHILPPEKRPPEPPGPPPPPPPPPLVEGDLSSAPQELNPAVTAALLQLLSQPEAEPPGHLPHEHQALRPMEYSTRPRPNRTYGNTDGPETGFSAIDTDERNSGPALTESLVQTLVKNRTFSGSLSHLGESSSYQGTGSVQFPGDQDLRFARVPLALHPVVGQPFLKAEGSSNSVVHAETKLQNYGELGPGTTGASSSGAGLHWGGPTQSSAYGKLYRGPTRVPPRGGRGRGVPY
T1 sequence (Q16531 whole entry): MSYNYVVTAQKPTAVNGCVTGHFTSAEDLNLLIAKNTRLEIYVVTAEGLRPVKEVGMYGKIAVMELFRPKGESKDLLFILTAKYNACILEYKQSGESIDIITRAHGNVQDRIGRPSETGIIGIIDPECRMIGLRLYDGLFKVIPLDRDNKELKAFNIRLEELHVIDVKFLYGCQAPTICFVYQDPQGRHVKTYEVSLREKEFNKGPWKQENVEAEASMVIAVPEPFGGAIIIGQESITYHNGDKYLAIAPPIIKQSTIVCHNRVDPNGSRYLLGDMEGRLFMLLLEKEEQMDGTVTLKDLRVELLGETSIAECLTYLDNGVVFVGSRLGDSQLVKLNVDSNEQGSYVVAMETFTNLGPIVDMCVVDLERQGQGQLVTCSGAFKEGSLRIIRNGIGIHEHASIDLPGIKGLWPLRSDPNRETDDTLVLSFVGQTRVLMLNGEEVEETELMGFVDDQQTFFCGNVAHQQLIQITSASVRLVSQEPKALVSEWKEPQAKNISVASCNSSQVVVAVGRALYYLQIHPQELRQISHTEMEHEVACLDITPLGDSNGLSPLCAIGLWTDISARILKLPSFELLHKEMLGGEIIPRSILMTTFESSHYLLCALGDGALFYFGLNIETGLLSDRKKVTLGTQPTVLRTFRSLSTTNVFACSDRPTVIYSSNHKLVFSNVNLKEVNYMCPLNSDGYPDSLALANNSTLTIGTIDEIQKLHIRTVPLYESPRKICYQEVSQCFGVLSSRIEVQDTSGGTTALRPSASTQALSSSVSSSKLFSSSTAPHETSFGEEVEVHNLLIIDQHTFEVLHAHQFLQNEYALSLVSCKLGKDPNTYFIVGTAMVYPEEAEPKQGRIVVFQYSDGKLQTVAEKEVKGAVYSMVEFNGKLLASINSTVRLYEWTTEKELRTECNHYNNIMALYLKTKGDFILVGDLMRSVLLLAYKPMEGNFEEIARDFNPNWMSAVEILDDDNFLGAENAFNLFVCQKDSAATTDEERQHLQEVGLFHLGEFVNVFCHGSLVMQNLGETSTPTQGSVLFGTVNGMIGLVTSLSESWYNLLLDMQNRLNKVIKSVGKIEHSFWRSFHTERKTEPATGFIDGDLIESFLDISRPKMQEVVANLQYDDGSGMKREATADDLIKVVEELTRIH
T1 sequence (O75909 whole entry partner): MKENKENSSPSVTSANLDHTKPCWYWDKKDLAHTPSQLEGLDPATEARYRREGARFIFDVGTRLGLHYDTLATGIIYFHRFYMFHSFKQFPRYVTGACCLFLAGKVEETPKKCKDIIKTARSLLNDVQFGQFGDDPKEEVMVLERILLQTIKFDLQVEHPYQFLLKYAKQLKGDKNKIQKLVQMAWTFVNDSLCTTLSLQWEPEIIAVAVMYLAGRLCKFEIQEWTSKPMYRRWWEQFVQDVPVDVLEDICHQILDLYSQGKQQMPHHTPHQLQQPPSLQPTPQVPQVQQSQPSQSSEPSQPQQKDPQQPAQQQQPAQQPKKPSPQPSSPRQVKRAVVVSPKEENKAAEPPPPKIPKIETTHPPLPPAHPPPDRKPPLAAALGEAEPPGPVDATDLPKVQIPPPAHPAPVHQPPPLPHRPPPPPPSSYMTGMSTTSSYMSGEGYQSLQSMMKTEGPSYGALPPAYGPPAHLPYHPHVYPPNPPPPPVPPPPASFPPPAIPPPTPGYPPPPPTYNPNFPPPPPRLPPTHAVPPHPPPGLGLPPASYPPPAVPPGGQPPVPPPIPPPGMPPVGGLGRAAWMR
Procedure: (§1) This assay measures the interaction/recruitment of CDK12/Cyclin K to DDB1, mechanistically validating the molecular glue pharmacology.
(§2) HEK293T wildtype cells are seeded 800 k cells/well (DMEM+10% FBS+1% PS) in a 6-well plate and allowed to attach for ˜7 hours followed by a transient transfection of 1.5 μg HaloTag_CDK12 Plasmid [Table 1] and 0.15 μg NanoLuc_DDB1 plasmid [Table 1] per well using PEI. Cells are incubated at 37° C., 5% CO2, harvested after 24 hours and resuspended in assay media (Opti-MEM Reduced serum media, no phenol red, 4% FBS, 1% PS). Cells are adjusted to 2.3×10^5 cells/ml and treated with HaloTag 618 Ligand at 100 nM or DMSO. 8000 cells are seeded per well in triplicates per compound in a white-walled 384-well plate, one negative control treated with DMSO instead of HaloTag 618 Ligand is seeded in triplicates and the 384-well plate is incubated at 37° C., 5% CO2 overnight. Compound stock solutions are prepared in Opti-MEM−/− (Opti-MEM I Reduced serum media, no phenol red) at 8× and used to treat the cells at a final concentration of 1× at 10 μM. Cells and compounds are incubated for 10 minutes at room temperature followed by addition of NanoBRET Nano-Glo substrate following manufacturer's protocols. The plate is shaken for 30 sec followed by immediate measurement of donor emission (NanoBRET Blue at 460 nm) and acceptor emission (BRET Deep Red at 647 nm) for 0.5 s.

[2] = molecular target: T1, DDB1-CDK12/Cyclin K ternary complex; experiment: NanoBRET EC50 assay (HaloTag_CDK12 / NanoLuc_DDB1 in HEK293T); type: cell-based; details: 10-point titration from 20 μM, HEK293T
Procedure: as §1, §2
The assay setup is identical to “NanoBRET fold change experimental setup”. Instead of treating cells in […] with 10 μM compound, a 10-point titration starting at 20 μM is performed with a dilution factor of 1:4, covering α range of 20000 nM-0.076 nM.

[3] = tested on: KBM7 cells (wild-type); experiment: KBM7 CTG EC50 assay (UBE2M wild-type); type: cell-based, human; details: for EC50: Homo sapiens, KBM-7, 72 h incubation, CellTiter-Glo, read-out: KBM7 CTG EC50 (UBE2M wild-type) Activity Class; for Ratio UBE2M WT to KO: ratio of anti-proliferative activity in KBM7 wild-type versus UBE2M knock-out cells (fold)
Source text: (§3) This is a cell viability assay to measure the desired therapeutic effect, i.e. killing of cancer cells. The UBE2M mutant cell line has impaired activity of the Cullin-RING ligase system due to a hypomorphic mutation in UBE2M, which is required for activation of these E3 ligases. By comparison with WT cells, it is possible to estimate the contribution of Cyclin K degradation (which is reduced in UBE2M mut cells) compared to kinase inhibition of CDK12 (which is unaffected in UBE2M mut cells). Since the UBE2M mutation only reduces CRL function without fully abrogating it, this assay may slightly underestimate the effect of degradation because, at high compound concentrations, degradation may still be observed.
(§4) KBM7 cells (wild-type or harboring α hypomorphic UBE2M mutation (Mayor-Ruiz et al., 2019)) were seeded in a white opaque 384-well plate at a density of 1000 cells per well in duplicate, in full medium (IMDM+10% FBS+1% penicillin-streptomycin). Cells were treated with compounds in a 10-point titration with a dilution factor of 1:4 (range: 0 to 20 μM). After 72 h of incubation, the cell viability was determined using the CellTiter-Glo® 2.0 reactant (Promega), pre-diluted 1:4 in mQ water. The luminescence signal was measured using the multimode plate reader EnVision 2105 (Perkin Elmer).

[4] = tested on: KBM7 cells harboring a hypomorphic UBE2M mutation; experiment: KBM7 CTG EC50 assay (UBE2M knock-out); type: cell-based; details: Homo sapiens, KBM-7; 72 h incubation, CellTiter-Glo; read-out: KBM7 CTG EC50 (UBE2M knock-out) Activity Class
Source text: as §3, §4

[5] = tested on: CCNK; experiment: NanoLuc-CCNK degradation assay (HEK293T_Nluc_CCNK-tagged cells); type: cell-based; details: 4 h incubation, HEK293T_Nluc_CCNK-tagged cells; for DC50: read-out: NanoLuc-CCNK degradation DC50 Activity Class
Procedure: The assay helps to elucidate the mechanistic explanation of the cell killing effect of the compounds of the present invention. Cyclin K is fused to a nanoluciferase, light emission is measured as a proxy of Cyclin K abundance. Potency of Cyclin K degradation and cytotoxicity of KBM7 correlate extremely well, further supporting Cyclin K degradation being the main driver of the cell killing, as opposed to inhibition of CDK12 catalytic activity.
HEK293T_Nluc_CCNK-tagged cells were engineered by integrating a nanoluciferase tag at the N-terminus of the endogenous locus of CCNK using CRISPR-Cas9 technology. Briefly, 5.5 million HEK293T cells were co-transfected by PEI with a 1:1 ratio of cutting vector (sgRNA: […]) and repair template (4 μg total plasmid) as previously described (Brand and Winter, 2019). The repair sequence comprises a cassette of puromycinR-P2A-HA-Nluc-(G4S)3 (P2A: self-cleaving peptide 2A, HA: HA-tag, (G4S)3: flexible linker), surrounded by 20-nucleotide microhomologies matching the genomic locus. After 3 days of incubation, the recombinant population was selected by puromycin treatment (2 μg/ml, 5-day treatment). A monoclonal population was obtained by limiting dilution and cassette integration validated by Sanger sequencing.
HEK293T_Nluc_CCNK-tagged cells were seeded in a white opaque 384-well plate at a density of 8000 cells per well in duplicate, in full medium (Opti-MEM I+4% FBS+1% PS). Cells were treated with compounds in a 10-point titration (range: 0 to 10 μM, 1:4 dilution). After 4 h of incubation, Nano-Glo substrate (Promega), pre-diluted in serum-free medium (Opti-MEM I), was added to the cells (1:500 final dilution). The luminescence signal was directly measured using the multimode plate reader EnVision 2105 (Perkin Elmer).

SMILES | NanoBRET fold-change Activity Class [1] | EC50 ([2]; read-out: NanoBRET EC50 Activity Class) | EC50 [3] | Ratio UBE2M WT to KO [3] | EC50 [4] | DC50 [5] | NanoBRET EC50 Activity Class [2] | NanoLuc-CCNK degradation DC50 Activity Class [5]
O=C(Cc1cn2cc(F)ccc2n1)Nc1ccc(C2CC2)cn1 [Example 3-62, N-(5-cyclopropylpyridin-2-yl)-2-(6-fluoroimidazo[1,2-a]pyridin-2-yl)acetamide] | A (greater than 4-fold increase) | ≤ 250 nM | ≤ 250 nM | 50.8 | 0.25 to 0.5 µM | ≤ 0.1 µM | – | –
Cc1ccc2c(CC(=O)Nc3ccc(C(C)C)cn3)coc2c1C [Example 3-51, 2-(6,7-dimethylbenzofuran-3-yl)-N-(5-isopropylpyridin-2-yl)acetamide] | B (3-4 fold increase) | – | 1000 to 10000 nM | >8 | > 10 µM | – | C (1.0 μM≤EC50<0.50 μM) | D (10 μM≤DC50<1.0 μM)
O=C(Nc1ncc(C(F)(F)F)s1)C1CC(=O)N(Cc2ccc(Cl)cc2)C1 (stereo not shown) [Example 3-28, 1-(4-chlorobenzyl)-5-oxo-N-(5-(trifluoromethyl)thiazol-2-yl)pyrrolidine-3-carboxamide] | B (3-4 fold increase) | – | ≤ 250 nM | 42.7 | 1 to 10 µM | – | – | C (1.0 μM≤DC50<0.50 μM)
O=C(Nc1ncc(C(F)(F)F)s1)C1CC(=O)N(c2ccc(Cl)cc2)C1 (stereo not shown) [Example 3-18, 1-(4-chlorophenyl)-5-oxo-N-(5-(trifluoromethyl)thiazol-2-yl)pyrrolidine-3-carboxamide] | C (2-3 fold increase) | – | ≤ 250 nM | >10 | > 10 µM | – | – | D (10 μM≤DC50<1.0 μM)
O=C(Cc1cn2cc(F)ccc2n1)Nc1cc(Cl)[nH]n1 [Example 3-60, N-(5-chloro-1H-pyrazol-3-yl)-2-(6-fluoroimidazo[1,2-a]pyridin-2-yl)acetamide] | C (2-3 fold increase) | – | 1000 to 10000 nM | >9 | > 10 µM | > 10 µM | – | –
O=C(Nc1ncc(C(F)(F)F)s1)C1CC(=O)N(c2ccc3c(c2)CCC3)C1 (stereo not shown) [Example 3-24, 1-(2,3-dihydro-1H-inden-5-yl)-5-oxo-N-(5-(trifluoromethyl)thiazol-2-yl)pyrrolidine-3-carboxamide] | B (3-4 fold increase) | – | ≤ 250 nM | 23.8 | 1 to 10 µM | – | – | B (0.50 μM≤DC50<0.10 μM)
Cc1ccc2c(ccn2CC(=O)Nc2ncc(C(F)(F)F)s2)c1 [Example 3-37, 2-(5-methyl-1H-indol-1-yl)-N-(5-(trifluoromethyl)thiazol-2-yl)acetamide] | C (2-3 fold increase) | – | 1000 to 10000 nM | >4 | > 10 µM | > 10 µM | – | –
O=C(CCn1cnc2ccc(Br)cc2c1=O)Nc1ncc(C(F)(F)F)s1 [Example 3-65, 3-(6-bromo-4-oxoquinazolin-3(4H)-yl)-N-(5-(trifluoromethyl)thiazol-2-yl)propanamide] | B (3-4 fold increase) | – | 500 to 1000 nM | >13 | > 10 µM | – | – | B (0.50 μM≤DC50<0.10 μM)
Cc1ccc2ncn(CC(=O)Nc3ncc(C(F)(F)F)s3)c2c1 [Example 3-15, 2-(6-methyl-1H-benzo[d]imidazol-1-yl)-N-(5-(trifluoromethyl)thiazol-2-yl)acetamide] | D (1-2 fold increase) | – | 1000 to 10000 nM | >4 | > 10 µM | > 10 µM | – | –
Cc1cc(NC(=O)Cc2cn3cc(F)ccc3n2)n[nH]1 [Example 3-56, 2-(6-fluoroimidazo[1,2-a]pyridin-2-yl)-N-(5-methyl-1H-pyrazol-3-yl)acetamide] | C (2-3 fold increase) | – | 250 to 500 nM | >10 | > 10 µM | > 10 µM | – | –
O=C(Cc1c[nH]c2cccnc12)Nc1ncc(C(F)(F)F)s1 [Example 3-40, 2-(1H-pyrrolo[3,2-b]pyridin-3-yl)-N-(5-(trifluoromethyl)thiazol-2-yl)acetamide] | – | – | ≤ 250 nM | >200 | > 10 µM | – | B (0.50 μM≤EC50≤0.25 μM) | D (10 μM≤DC50<1.0 μM)
CC(C)c1ccc(NC(=O)Cc2cn3cc(F)ccc3n2)nc1 [Example 3-61, 2-(6-fluoroimidazo[1,2-a]pyridin-2-yl)-N-(5-isopropylpyridin-2-yl)acetamide] | A (greater than 4-fold increase) | – | ≤ 250 nM | >20 | > 10 µM | – | – | B (0.50 μM≤DC50<0.10 μM)
Cc1ccc2c(CC(=O)Nc3cc(Cl)[nH]n3)coc2c1C [Example 3-49, N-(5-chloro-1H-pyrazol-3-yl)-2-(6,7-dimethylbenzofuran-3-yl)acetamide] | B (3-4 fold increase) | – | ≤ 250 nM | 37.3 | 1 to 10 µM | – | – | B (0.50 μM≤DC50<0.10 μM)
